Measurements taken from ChEMBL document CHEMBL6074652, “New rhodol-sulforaphane conjugates as innovative isothiocyanate-based cytotoxic agents for cancer cells” (Eur J Med Chem, 2024).
Calls of active or inactive are those of the source. No cut-off for these calls is given here.

Assays:
Jurkat [1] = assay: Cytotoxicity against human Jurkat cells assessed as inhibition of cell viability < 32 uM incubated for 72 hrs by trypan blue staining based MTT assay; assay type: functional
Jurkat [2] = assay: Induction of DNA damage in human Jurkat cells assessed as single strand breaks at <32 uM by measuring nuclear diffusion factor by fast halo based fluorescence microscopic analysis; assay type: functional, cell-based
TK6 [3] = assay: Cytotoxicity against human TK6 cells assessed as reduction in cell viability at 0 to 6 uM incubated for 24 hrs by trypan blue staining based MTT assay; assay type: functional; settings: dose 0-6 µM
Jurkat [4] = assay: Cytotoxicity against human Jurkat cells assessed as cell growth inhibition under 37 degreeC incubated for 72 hrs by trypan blue staining based MTT assay; assay type: functional
OCI-AML-3 [5] = assay: Cytotoxicity against human OCI-AML-3 cells assessed as reduction in cell viability incubated for 24 hrs by trypan blue staining based MTT assay; assay type: functional; settings: dose 0-8 µM
Jurkat [6] = assay: Induction of apoptosis in human Jurkat cells assessed as cleavage of PARP1 at 4 to 6 uM by flow cytometric analysis; assay type: functional, cell-based; settings: dose 4-6 µM
Jurkat [7] = assay: Induction of DNA damage in human Jurkat cells assessed as accumulation of single strand breaks at 2 to 6 uM under 4 degreeC incubated for 1 hr by measuring nuclear diffusion factor by fast halo based fluorescence microscopic analysis; assay type: functional, cell-based; settings: dose 2-6 µM
Jurkat [8] = assay: Cytotoxicity against human Jurkat cells assessed as inhibition of cell viability incubated for 72 hrs by trypan blue staining based MTT assay; assay type: functional
Jurkat [9] = assay: Induction of DNA damage in human Jurkat cells assessed as fold increase in p53 expression at 4 uM by flow cytometric analysis; assay type: functional
U-937 [10] = assay: Cytotoxicity against human U-937 cells assessed as reduction in cell viability incubated for 24 hrs by trypan blue staining based MTT assay; assay type: functional; settings: dose 0-8 µM
U-937 [11] = assay: Cytotoxicity against human U-937 cells assessed as reduction in cell viability at 0 to 8 uM incubated for 24 hrs by trypan blue staining based MTT assay; assay type: functional; settings: dose 0-8 µM
TK6 [12] = assay: Induction of DNA damage in human TK6 cells assessed as micronuclei formation at >4 uM incubated for 4 hrs by May-Grunwald/Giemsa staining based microscopic analysis; assay type: functional, cell-based
MV4-11 [13] = assay: Cytotoxicity against human MV4-11 cells assessed as reduction in cell viability at 0 to 8 uM incubated for 24 hrs by trypan blue staining based MTT assay; assay type: functional; settings: dose 0-8 µM
Jurkat [14] = assay: Induction of apoptosis in human Jurkat cells assessed as increase in caspase-3 activity incubated for 2 hrs by colorimetric protease assay; assay type: functional, cell-based; settings: dose 2-6 µM
Jurkat [15] = assay: Induction of DNA damage in human Jurkat cells assessed as fold increase in H2AX phosphorylation expression at 4 to 8 uM incubated for 30 mins by flow cytometric analysis; assay type: functional; settings: dose 4-8 µM, 0.5 h
TK6 [16] = assay: Cytotoxicity against human TK6 cells assessed as reduction in cell viability incubated for 24 hrs by trypan blue staining based MTT assay; assay type: functional; settings: dose 0-6 µM
Jurkat [17] = assay: Induction of DNA damage in human Jurkat cells assessed as single strand breaks at 8 uM by measuring nuclear diffusion factor measured after 3 hrs by fast halo based fluorescence microscopic analysis relative to control; assay type: functional
Jurkat [18] = assay: Induction of DNA damage in human Jurkat cells assessed as accumulation of single strand breaks at 2 to 8 uM by measuring nuclear diffusion factor by fast halo based fluorescence microscopic analysis; assay type: functional, cell-based; settings: dose 2-8 µM
RPMI-1788 [19] = assay: Cytotoxicity against human RPMI-1788 cells assessed as reduction in cell viability incubated for 24 hrs by trypan blue staining based MTT assay; assay type: functional; settings: dose 0-8 µM
OCI-AML-3 [20] = assay: Cytotoxicity against human OCI-AML-3 cells assessed as reduction in cell viability at 0 to 8 uM incubated for 24 hrs by trypan blue staining based MTT assay; assay type: functional; settings: dose 0-8 µM
TK6 [21] = assay: Induction of DNA damage in human TK6 cells assessed as micronuclei formation at 4 uM by measuring 1000 binucleated cells incubated for 4 hrs by May-Grunwald/Giemsa staining based microscopic analysis; assay type: functional
MOLM-13 [22] = assay: Cytotoxicity against human MOLM-13 cells assessed as reduction in cell viability at 0 to 8 uM incubated for 24 hrs by trypan blue staining based MTT assay; assay type: functional; settings: dose 0-8 µM
MV4-11 [23] = assay: Cytotoxicity against human MV4-11 cells assessed as reduction in cell viability incubated for 24 hrs by trypan blue staining based MTT assay; assay type: functional; settings: dose 0-8 µM
MOLM-13 [24] = assay: Cytotoxicity against human MOLM-13 cells assessed as reduction in cell viability incubated for 24 hrs by trypan blue staining based MTT assay; assay type: functional; settings: dose 0-8 µM
TK6 [25] = assay: Induction of DNA damage in human TK6 cells assessed as micronuclei formation incubated for 4 hrs by May-Grunwald/Giemsa staining based microscopic analysis; assay type: functional, cell-based; settings: dose 1-4 µM
TK6 [26] = assay: Induction of DNA damage in human TK6 cells assessed as micronuclei formation at 2 uM incubated for 4 hrs by May-Grunwald/Giemsa staining based microscopic analysis; assay type: functional, cell-based
Jurkat [27] = assay: Cytotoxicity against human Jurkat cells assessed as cell growth inhibition under 4 degreeC incubated for 72 hrs by trypan blue staining based MTT assay; assay type: functional
Jurkat [28] = assay: Induction of DNA damage in human Jurkat cells at 4 uM assessed as nuclear diffusion factor incubated for 1 hr in presence of rotenone by fast halo based fluorescence microscopic analysis; assay type: functional, cell-based
Jurkat [29] = assay: Induction of DNA damage in human Jurkat cells assessed as increase in accumulation of single strand breaks by measuring nuclear diffusion factor by fast halo based fluorescence microscopic analysis; assay type: functional, cell-based; settings: dose 0-8 µM
Jurkat [30] = assay: Cytotoxicity against human Jurkat cells at 4 uM incubated for 1 hr in presence of rotenone by trypan blue staining based MTT assay; assay type: functional, cell-based
Jurkat [31] = assay: Induction of DNA damage in human Jurkat cells measured at 1 hr; assay type: functional, cell-based; settings: dose 6.0 µM
Jurkat [32] = assay: Induction of DNA damage in human Jurkat cells at 4 uM assessed as nuclear diffusion factor incubated for 1 hr in presence of iron-chelator o-phenanthroline by fast halo based fluorescence microscopic analysis; assay type: functional, cell-based
TK6 [33] = assay: Induction of DNA damage in human TK6 cells assessed as accumulation of single strand breaks at 2 to 8 uM by measuring nuclear diffusion factor by fast halo based fluorescence microscopic analysis; assay type: functional, cell-based; settings: dose 2-8 µM
RPMI-1788 [34] = assay: Cytotoxicity against human RPMI-1788 cells assessed as reduction in cell viability at 0 to 8 uM incubated for 24 hrs by trypan blue staining based MTT assay; assay type: functional; settings: dose 0-8 µM
Mitochondrial membrane = assay: Induction of mitochondrial membrane potential loss in human Jurkat cells at 2 to 6 uM by flow cytometric analysis; settings: dose 2-6 µM
Jurkat [35] = assay: Cytotoxicity against human Jurkat cells at 4 uM in presence of iron-chelator o-phenanthroline by trypan blue staining based MTT assay; assay type: functional, cell-based
Jurkat [36] = assay: Induction of apoptosis in human Jurkat cells assessed as increase in caspase-8 activity incubated for 2 hrs by colorimetric protease assay; assay type: functional, cell-based; settings: dose 2-6 µM
Jurkat [37] = assay: Cytotoxicity against human Jurkat cells at 6 uM in presence of iron-chelator o-phenanthroline by trypan blue staining based MTT assay; assay type: functional, cell-based
Jurkat [38] = assay: Induction of apoptosis in human Jurkat cells assessed as appearance of chromatin condensation pretreated with compound for 1 hr and measured after 5 hrs by uranyl acetate and lead citrate staining based transmission electron microscopic analysis; assay type: functional, cell-based; settings: time 6.0 hrs
Jurkat [39] = assay: Induction of DNA damage in human Jurkat cells at 6 uM assessed as nuclear diffusion factor incubated for 1 hr in presence of rotenone by fast halo based fluorescence microscopic analysis; assay type: functional, cell-based
Jurkat [40] = assay: Induction of apoptosis in human Jurkat cells assessed as appearance of secondary necrosis pretreated with compound for 1 hr and measured after 5 hrs by uranyl acetate and lead citrate staining based transmission electron microscopic analysis; assay type: functional, cell-based; settings: time 6.0 hrs
Jurkat [41] = assay: Induction of apoptosis in human Jurkat cells assessed as appearance of micronuclei pretreated with compound for 1 hr and measured after 5 hrs by uranyl acetate and lead citrate staining based transmission electron microscopic analysis; assay type: functional, cell-based; settings: time 6.0 hrs
Jurkat [42] = assay: Induction of DNA damage in human Jurkat cells at 6 uM assessed as nuclear diffusion factor incubated for 1 hr in presence of iron-chelator o-phenanthroline by fast halo based fluorescence microscopic analysis; assay type: functional, cell-based
Jurkat [43] = assay: Induction of apoptosis in human Jurkat cells assessed as appearance of cup-shaped masses pretreated with compound for 1 hr and measured after 5 hrs by uranyl acetate and lead citrate staining based transmission electron microscopic analysis; assay type: functional, cell-based; settings: time 6.0 hrs
Jurkat [44] = assay: Cytotoxicity against human Jurkat cells at 6 uM incubated for 1 hr in presence of rotenone by trypan blue staining based MTT assay; assay type: functional, cell-based
Jurkat [45] = assay: Cytotoxicity against human Jurkat cells assessed as cell survival rate at 30 uM incubated for 72 hrs by trypan blue staining based MTT assay; settings: read-out: Survival

SMILES	Activity (TK6 [3])	IC50 (Jurkat [4]) [µM]	Activity (OCI-AML-3 [5])	Activity (Jurkat [6])	Activity (Jurkat [7])	Activity (Jurkat [8])	IC50 (Jurkat [8]) [µM]	fold change (FC) (Jurkat [9])	Activity (U-937 [10])	Activity (U-937 [11])	Activity (TK6 [12])	Activity (MV4-11 [13])	Activity (Jurkat [14])	fold change (FC) (Jurkat [15])	Activity (TK6 [16])	Activity (Jurkat [17]) [%]	Activity (Jurkat [18])	Activity (RPMI-1788 [19])	Activity (OCI-AML-3 [20])	Activity (TK6 [21])	also measured
Cc1ccccc1-c1c2ccc(=O)cc-2oc2cc(OCCCCCCN)ccc12	–	–	–	–	–	–	–	–	–	–	–	–	–	–	–	–	–	–	–	–	Activity (Jurkat [1]): inactive; Activity (Jurkat [2]): inactive
Cc1ccccc1-c1c2ccc(=O)cc-2oc2cc(OCCOCCN=C=S)ccc12	Active	3.65	Dose-dependent-effect	Active	Active	Dose-dependent-effect	3.65	70.4	Dose-dependent-effect	Active	Active	Active	Dose-dependent-effect	2	Dose-dependent-effect	48.7	Active	Dose-dependent-effect	Active	19.59	Activity (MOLM-13 [22]): Active; Activity (MV4-11 [23]): Dose-dependent-effect; Activity (MOLM-13 [24]): Dose-dependent-effect; Activity (TK6 [25]): Dose-dependent-effect; Activity (TK6 [26]): Active; IC50 (Jurkat [27]): 2.54 µM; Activity (Jurkat [28]): Active; Activity (Jurkat [29]): Dose-dependent-effect; Activity (Jurkat [30]): Active; Activity (Jurkat [31]): Dose-dependent-effect; Activity (Jurkat [32]): Active; Activity (TK6 [33]): Active; Activity (RPMI-1788 [34]): Active; Activity (Mitochondrial membrane): Active; Activity (Jurkat [35]): Active; Activity (Jurkat [36]): Dose-dependent-effect
Cc1ccccc1-c1c2ccc(=O)cc-2oc2cc(OCCCCCCN=C=S)ccc12	Active	5.96	Dose-dependent-effect	Active	Active	Dose-dependent-effect	5.96	45.5	Dose-dependent-effect	Active	Active	Active	Dose-dependent-effect	2	Dose-dependent-effect	59.2	Active	Dose-dependent-effect	Active	13.07	Activity (Jurkat [37]): Active; Activity (Jurkat [38]): Active; Activity (Jurkat [39]): Active; Activity (MOLM-13 [22]): Active; Activity (MV4-11 [23]): Dose-dependent-effect; Activity (MOLM-13 [24]): Dose-dependent-effect; Activity (TK6 [25]): Dose-dependent-effect; Activity (Jurkat [40]): Active; IC50 (Jurkat [27]): 3.99 µM; Activity (Jurkat [41]): Active; Activity (Jurkat [29]): Dose-dependent-effect; Activity (Jurkat [31]): Dose-dependent-effect; Activity (Jurkat [42]): Active; Activity (TK6 [33]): Active; Activity (Jurkat [43]): Active; Activity (RPMI-1788 [34]): Active; Activity (Mitochondrial membrane): Active; Activity (Jurkat [36]): Dose-dependent-effect; Activity (Jurkat [44]): Active
C[S+]([O-])CCCCN=C=S (centres undefined) [SULFORAPHANE]	–	–	–	–	–	–	29.7	–	–	–	–	–	–	–	–	–	–	–	–	–	viability at 30 µM (Jurkat [45]): 66.2%
